According to patent publication US20170367338A1, “COMPOSITIONS AND METHODS FOR IMPROVING AGRONOMIC CHARACTERISTICS OF PLANTS” (MONSANTO TECHNOLOGY LLC, priority 2014, published 2017):
≈ marks a conversion by molar mass, not a printed value. Like-named read-outs stand apart in the source and are kept apart here. Marks after values point to notes of the source that are not given here.

Tests used:
[1] = system: root knot nematode (RKN); assay: RKN greenhouse soil assay on cucumber plants; assay type: in vivo; settings: Radex emulsifiable concentrate formulation (6.25% active ingredient)
[2] = system: root knot nematode (RKN); assay: RKN greenhouse soil assay on cucumber plants; assay type: in vivo; settings: for percent control (galling reduction), Acetone 1 mg/kg: Acetone formulation (10% acetone in 0.05% Triton X 100)
Source text: Cucumber seeds are planted in a sandy soil mixture in two inch square plastic pots. When the cotyledons are fully opened and just as the first leaf begins to emerge, usually 7 days after planting, chemistry for the 7 day treatment is applied. One week later the chemistry for the 0 day treatment is applied. Separate plants are used for each application. The plants are generally in the 1-2 leaf stage now. At least four hours after the chemistry application the pots are inoculated with root knot nematode (RKN) eggs. Plants are rated for galling 14 days after the egg inoculation.
(§1) One milligram of chemistry per four pots is equal to one kilogram per hectare of chemical. A standard test uses four replications. For rates above 2 kg/ha, the desired amount of chemical is weighed into a 30 ml vial (example: 8 kg/ha rate =8 mg chemical in 30 ml vial). The chemical is dissolved in 2 ml of appropriate solvent, generally acetone. For rates below 2 kg/ha, 2 milligrams of chemistry is weighed into the vial and dissolved in 2 ml of the solvent. The appropriate amount of chemical concentrate is then pipetted into a separate 30 ml vial and solvent is added to bring the volume to 2 ml (example 0.5 kg/ha=0.5 ml of concentrate+1.5 ml solvent). Each dissolved concentrate is then brought to a total of 20 milliliters using 0.05% Triton X 100 surfactant solution.
(§2) Pots to be treated are moist but not saturated. To each of four pots, five milliliters of the appropriate chemical solution is pipetted to the media surface making sure to avoid contact with the base of the plant. Immediately following chemical application, using a mist nozzle, the pot surface is wetted sufficiently to saturate the pot watering in the chemistry. The chemical application is done in the morning.
(§3) Nematode eggs, either SCN or RKN, are added to distilled water to create a concentration of 1000 vermiform eggs […]. At least four hours after chemical treatment the eggs are applied to the treated pots plus non-treated check plants. A small hole about 1 cm deep is punched into the pot surface. One milliliter of the nematode egg slurry is pipetted into the hole. Immediately afterwards the hole is gently covered. Watering of the test plants is then restricted to only water as needed to prevent wilt for a period of 24 hours. After the 24 hour restricted watering, normal sub-irrigation watering is done for the duration of the test.

[3] = system: root knot nematode; assay: Pre-plant incorporated (PPI) greenhouse test of root knot nematode on cucumber plants; assay type: in vivo; settings: for pest or weed control at 4000 g/ha: 4 kg/ha, read-out: percent control (galling reduction), 4 kg/ha rate; for pest or weed control at 8000 g/ha: 8 ka/ha, read-out: percent control (galling reduction), 8 ka/ha rate
Source text: The PPI test examines the effect of pre-incorporation of compounds in soil and longer aging to simulate in furrow methods of nematicide application in the field. The PPI test exposes compounds to a higher volume of soil and drying which can result in more severe soil binding. Compounds are also aged for longer periods which can lead to more extensive biotic and abiotic degradation further limiting activity.
The chemically treated soil (sandy soil mix) for all treatment days (e.g., 7 days, 14 days, 21 days) treatments is potted into their appropriate pots. On the same day the 7 day treatment pots are seeded. One week later eggs are applied and 14 days after egg application the test is harvested. The 14 day treatments are planted 7 days after the first planting. The 14 day planting and 7 day inoculation happen on the same day. One week later the 14 day treatments are inoculated with eggs. These are harvested 14 days after the inoculation. The 21 day treatments are planted 14 days after the first planting. The 14 day inoculation and 21 day planting are done on the same day. One week later the 21 day plants are inoculated with eggs. The 7 day treatment is harvested the same day as the 21 day inoculation. Fourteen days after inoculation the 21 day plants are harvested.
For each compound a stock is prepared using 4 mg material in 4 ml of acetone. The soil is mixed by placing 80 ml of field soil and 320 ml of sand in a plastic bag and mixing well. The formulation for treatment is done by adding 2.13 ml (8 kg/ha rate), 1.06 ml (4 kg/ha rate) or 0.53 ml (2 kg/ha rate) to a vial and raising it with 10 ml in 0.05% X100. Soil is then treated by adding the entire 10 ml to the 400 ml of mix in the bag. The treated soil is immediately mixed well in the sealed bag to distribute the compound evenly. Approximately 95 ml is used to fill each 2-inch square pot up to the top with some soil compression and flattening. For each compound and for the control treatments 4 pots are filled. All pots are watered until moist but with no run-out through the bottom.
The PPI test simulates 8, 4 and 2 kg/ha rates incorporated 15 cm deep in the field and is equivalent to the 2, 1 and 0.5 kg/ha drench application rates in the standard 2-inch pot cucumber greenhouse assay.

[4] = system: Meloidogyne incognita; assay: M. incognita miniaturized greenhouse assay on cucumber seedlings; assay type: in vivo; settings: 1 ppm
Protocol: The test compound is dissolved in an acetone solution and added to water. A sprouted cucumber seedling is placed into a vial with dry sand and the water-chemical solution is added immediately. Twenty four hours later Meloidogyne incognita eggs are added to the vials and 10 to 12 days later the roots are evaluated for nematode galling.
Cucumber seeds are sprouted for 3 days in moist paper towels. Acceptable sprouts should be 3 to 4 cm long with several lateral roots just emerging. Stock solutions of chemistry are prepared in a mixture of acetone and Triton X100 (412 mg in 500 mL) to a final concentration of 5 mg/mL. The chemical stock solution is then added to 10 mL deionized water plus 0.015% Triton X100 and mixed thoroughly. This is enough to test each condition in triplicate. Ten mL dry sand is added to each vial. At this time the solubility of the chemistry is visually determined and recorded as either ppt (large precipitates) or cloudy (fine precipitates). Seedlings are planted by tilting the vial and laying the seedling in the correct orientation so that the cotyledons are just above the sand and then tilting back to cover the radicles with sand. 3.3 ml water/chemical mix is added to each vial and the vials placed in racks under fluorescent light banks. The vials are inoculated two days after planting by adding 500 vermiform M. incognita eggs to each vial in 50 uL of deionized or spring water. The vials are then kept under the fluorescent lamps at ambient room temperature and watered as needed with 1mL deionized water, usually twice during duration of test. Harvest of the cucumber plants is done 10 to 12 days after inoculation by washing sand off the roots. A root gall rating and visual phytotoxicity rating is assigned using the following scales: Gall rating scale (Gall: % root mass galled): 0=0-5%; 1=6-20%; 2=21-50%; and 3=51-100%. The average of the triplicate gall rating is then calculated: green=0.00-0.33 (no galls); yellow=0.67-1.33 (mild galling); orange=1.67-2.33 (moderate galling); red=2.67-3.00 (severe galling). Visual phytotoxicity scale is also assigned (Vis. tox; visual reduction in root mass compared to the control): rs1=mild stunting; rs2=moderate stunting; rs3=severe stunting.

[5] = assay type: in vivo
Protocol: Acute oral toxicity testing was performed in mice in accordance with test method P203.UDP, as administered by Eurofins/Product Safety Laboratories (Dayton, New Jersey). CD-1/Swiss derived albino mice were obtained and group housed in suspended solid bottom caging. The mice were fed rodent chow and filtered tap water was supplied ad libitum. Following acclimation to the laboratory setting, a group of animals was fasted overnight by removing food from the cages. After the fasting period, three female mice were selected based on vitality and initial body weights. The individual compound doses were calculated from these body weights.
The test substance was prepared as a 1% (50 mg/kg) or 5% (500 mg/kg) weight to weight (w/w) mixture in a 0.5% w/w solution of carboxymethylcellulose (CMC) in distilled water. A tissue homogenizer was used to create a homogeneous mixture. A dose of 50 or 500 mg/kg was administered to three healthy mice per dose level by oral intubation using a ball-tipped gavage needle attached to a syringe. After administration, the animals were returned to their cages, and feed was replaced immediately after dosing.
Body weights were recorded prior to initiation and on Days 7 and 14 or a soon as possible after death.

[6] = system: Meloidogyne incognita; assay: Fall nematicidal field test on squash
Source text: The soil was a native prairie/pasture covering silty clay loam soil. […] Total volume of each hole was about 1.2 cubic feet. […] Holes were filled and then re-filled 5 days later after settling. […] Organic matter was 0.2% and pH was 6.8.
Treatments were arranged in a block design with the blocks laid out perpendicular to the primary slope and parallel to secondary slope. There are 7 inoculated controls and 5 non-inoculated controls and the distributions of disease severity appeared independent of location.
The resultant mix is the same as used in the standard greenhouse assays (10% acetone, 0.05% X100). The oxamyl treatments were prepared from Vydate 2L formulated the same way. The 500 ml was placed in a watering can and the entire volume was evenly sprinkled over the surface of the plot. No runoff occurred and pooling, if any, was short lived. The final drench volume was 0.58 ml/cm^2, compared to 0.2 ml/cm^2 used in our greenhouse, however the microplots are much deeper so the drench volume applied per soil volume treated is roughly the same.
Meloidogyne incognita eggs were harvested over a two week period and stored at approximately 5° C. until needed. A stock of 5.6 million vermiform eggs was adjusted to 9000/m1 in 620 ml. One day after treatment, two holes were made in each plot about 7 cm apart and equidistant from the squash plants. Five ml of egg suspension was pipetted into each hole, which was then sealed and the plot lightly watered. A total of 90,000 vermiform eggs were added to each plot.
The first root evaluation was at 28 DAT. The tops were cut off and weighed immediately in the field, and the roots were carefully dug out so as not to disturb the remaining plant.

[7] = system: soybean cyst nematode (SCN); assay: SCN greenhouse sand assay on soybean plants; assay type: in vivo; settings: Glycine max, 672 h, read-out: percent control (cyst number reduction) relative to the control blank treatment
Source text: Soybeans seeds are planted in 100% sand in two inch square plastic pots. Chemical treatment is done when the soybeans show the first trifoliate beginning to emerge about 10 to 12 days after planting. At least four hours after chemical application the nematode soybean cyst nematode (SCN) eggs are applied and 28 days after the egg inoculation the test is harvested.
as §1, §2, §3

[8] = system: C. elegans; assay: Three day C. elegans well assay; assay type: in vivo; settings: Caenorhabditis elegans
Protocol: Various compounds were tested for nematicidal activity against C. elegans using contact assays in wells. The assays were performed as described below. The test compounds were solubilized in DMSO at 10 mg/ml to create 100× stock solutions. A dilution series was created by diluting the stock solution with DMSO. For each well assay 4 ul of the appropriate dilution is added to a well of a test plate. A 400 ul aliquot of bacterial stock (in M9 buffer with ampicillin and nystatin) are added to each well of the test plate. Worms are added and the test plate placed on a rotary shaker and held at 20° C. Worms are examined and scored at 4 hrs, 24 hrs, 48 hrs and 72 hours. L1 worms and L4 worms were used in the assay. L1 worms are prepared by plating eggs on a plate without a bacterial feeding layer. The eggs hatch and arrest at the L1 stage. This L1 stage population is then used to create a stock for the experiments. To create an L4 stage stock a small number of worms are taken from an overgrown and starved plate of worms and seeded on a plate with a bacterial feeder layer. A 25 ul aliquot of worms is added to each well in the assay.

[9] = 504 h, twenty one day pre-plant incorporated
[10] = 336 h, fourteen day pre-plant incorporated, test a
[11] = fourteen day pre-plant incorporated, test a

Brc1ccc(-c2noc(-c3cccs3)n2)cc1 [compound 1846]
percent control (galling reduction), Radex 1 mg/kg [1]: 86%
percent control (galling reduction), Acetone 1 mg/kg [2]: 88%

Brc1ccc(-c2cnc(-c3cccs3)o2)cc1 [compound 4776]
pest or weed control at 4000 g/ha [3, 9]: 50%
pest or weed control at 8000 g/ha [3, 9]: 80%
1 ppm gall rating ([4]; Table 1C test a): 1 (1=6-20%)
1 ppm gall rating ([4]; Table 1C test c): 1 (1=6-20%)
acute oral toxicity: mortality and signs ([5]; 500 mg/kg oral, three female mice, observed up to 14 days): two animals died within three days
oral toxicity ([5]; mice, estimate based on the 50 and 500 mg/kg studies): lower than 500 mg/kg
RW28 root weight at 28 days after treatment ([6]; 2 kg ai/ha, squash): 7.5
RW43 root weight at 43 days after treatment ([6]; 2 kg ai/ha, squash): 13.0
TW28 top weight at 28 days after treatment ([6]; 2 kg ai/ha, squash): 250.8
control of root galling compared with oxamyl at an equivalent rate ([6]; both the 28 day and the 43 day time point): statistically better than oxamyl
pest or weed control at 500 g/ha ([7]; 0.5 kg/ha, test c): 78%
pest or weed control at 1000 g/ha ([7]; 1 kg/ha, test c): 89%
pest or weed control at 2000 g/ha ([7]; 2 kg/ha, test a): 99%

Brc1ccc(-c2noc(-c3ccco3)n2)cc1 [compound 5467]
percent control (galling reduction), Radex 1 mg/kg [1]: 88%
pest or weed control at 4000 g/ha [3, 10]: 76%
percent control (galling reduction), 2 kg/ha rate [3, 11]: 71^a percent
pest or weed control at 8000 g/ha [3, 11]: 100%
percent control (galling reduction), Acetone 1 mg/kg [2]: 73%

Cc1cc(Br)ccc1-c1noc(-c2ccco2)n1 [compound 5825]
percent control (galling reduction), Radex 1 mg/kg [1]: 96%
pest or weed control at 4000 g/ha [3, 10]: 98%
percent control (galling reduction), 2 kg/ha rate [3, 11]: 69^a percent
pest or weed control at 8000 g/ha [3, 11]: 96%
percent control (galling reduction) relative to the control blank treatment ([2]; 0 day treatment, 0.1 kg/ha, test a): 50^a percent
percent control (galling reduction), Acetone 1 mg/kg [2]: 96%
EC50 ([8]; 24 h, L1 larvae, one day of exposure, read-out: EC50 L1 1D): 0.4 µg/mL (≈ 1.31 µM)
EC50 ([8]; 24 h, L4 larvae, one day of exposure, read-out: EC50 L4 1D): 1.6 µg/mL (≈ 5.24 µM)
EC50 ([8]; 48 h, L1 larvae, two days of exposure, read-out: EC50 L1 2D): 0.4 µg/mL (≈ 1.31 µM)
EC50 ([8]; 48 h, L4 larvae, two days of exposure, read-out: EC50 L4 2D): 1.6 µg/mL (≈ 5.24 µM)
EC50 ([8]; 72 h, L1 larvae, three days of exposure, read-out: EC50 L1 3D): 0.4 µg/mL (≈ 1.31 µM)
EC50 ([8]; 72 h, L4 larvae, three days, effects on the second generation larvae, read-out: EC50 L4 3D (F1)): 1.6 µg/mL (≈ 5.24 µM)
